For data set [1] the following is noted: ophthalmic application, DMSO in association with dilute povidone-iodine; cited from earlier work.
Data set [2] can be described thus: Forced degradation studies (acidic, alkaline, oxidative stress at 60° C.), HPLC quantification. It is filed as physicochemical. How it is done: (§1) For each unit, ataluren was quantified using the liquid chromatography method adapted from the method described by Kong et al.. Analyses were performed on a Thermo Scientific Ultimate 3000 chromatogram system (Villebon-sur-Yvette, France) including a quaternary pump (LPG 3400A), an automatic sampler (WPS 3000TSL), a diode array detector (DAD 300016) with 5 cm flow cell, and the associated software used to record and interpret chromatograms (Chromeleon®, Version 8.0). The stationary phase consisted in a Kinetex® C18 column (250×4.6 mm; 5 μm, Phenomenex, Le Pecq, France). The mobile phase was a gradient mixture of 0.1% formic acid (A) and acetonitrile (B). The flow rate was maintained at 1 mL/min, and the gradient profile was as follows: t0-11 min: A=30% B=70%; t11-15 min A=70% B=30%. The injection volume was 50 μL. The drug absorbance for quantification was obtained at 276 nm.
[…] To mimic the potential photodegradation occurring prior or after drug administration, photolytic studies were carried out by exposing the drug solutions to direct UV-visible light with and without photocatalyst or photosensitizer (i.e. titanium oxide 1 g L-1, riboflavin 100 mg L-1). Photolysis experiments were performed using a QSUN-XE-1 (Q-Lab, Bolton, United Kingdom) light chamber equipped with a xenon lamp, which simulates natural sunlight in a wavelength range of 300-800 nm. […]

A short description of data set [3]: Photolysis under simulated sunlight, with and without photocatalyst or photosensitizer. In kind it is physicochemical. The following applies: for % remaining: Direct photolysis, visible ~119,600 lx, UVA 300-400 nm 66.5 W m^−2; for degradation in direct photolytic stress condition: direct light exposure. How it is done: as §1
The specificity was assessed by subjecting the ataluren 1% solubilized in DMSO (10%) and castor oil solutions to various forced degradation conditions: 0.1M hydrochloric acid (HCl), 0.1M sodium hydroxide (NaOH), 0.3% and 15% hydrogen peroxide (H2O2) for 24 h, 48 h, and 72 h at 60° C. To mimic the potential photodegradation occurring prior or after drug administration, photolytic studies were carried out by exposing the drug solutions to direct UV-visible light with and without photocatalyst or photosensitizer (i.e. titanium oxide 1 g L-1, riboflavin 100 mg L-1). Photolysis experiments were performed using a QSUN-XE-1 (Q-Lab, Bolton, United Kingdom) light chamber equipped with a xenon lamp, which simulates natural sunlight in a wavelength range of 300-800 nm. A Daylight-Q filter was used to simulate CIE Standard Illuminant D65 (Q-Lab) and irradiance was maintained constant (1.5 W m-2 at 420 nm). The measurements corresponded to a visible intensity of ˜119,600 1×, and a UVA intensity at 300-400 nm of 66.5 W m-2. For all the experiments the temperature was controlled and set at 25±0.5° C.

The conditions of data set [4]: cited from earlier work.

Data on two molecules can be found in patent US20240024292A1, “ATALUREN EYE DROP FORMULATION” (INSTITUT NATIONAL DE LA SANTÉ ET DE LA RECHERCHE MÉDICALE, priority 2020, published 2024).

≈ marks a conversion by molar mass, not a printed value. Entries after “also recorded” stand apart in the source; their conditions may differ.

For `C[S+](C)[O-]` [DMSO, dimethylsulfoxyde], the “patients with mild irritation (stinging, tingling or burning at the application), without serious adverse effects” value in data set [1] was 11.8%.

The term solubility denotes the dissolved amount per volume that the medium holds. As for `O=C(O)c1cccc(-c2noc(-c3ccccc3F)n2)c1` [ataluren, 3-(5-(2-fluorophenyl)-1,2,4-oxadiazol-3-yl)benzoic acid], in data set [2] (15% hydrogen peroxide exposure), the “appearance of degradation products” value is “Degradation products appeared”. For the same molecule, the degradation under stress result in data set [2] (strong acidic, basic or 0.3% H2O2 conditions, after 7 days exposure) is “not degraded”. The “% remaining” value is listed as 100.1% in data set [3] (30 min exposition), 102.4% in data set [3] (60 min exposition), 100.1% in data set [3] (180 min exposition) and 103.4% in data set [3] (360 min exposition). Also, the “degradation in direct photolytic stress condition” value in data set [3] is on record as “not degraded”; in data set [3] (listed as Ataluren) it was “did not decrease”. Also, the “degradation under light with photocatalyst” value in data set [3] (in presence of photocatalyst agent (titanium oxide)) is on record as “rapidly degraded; also recorded: decreased”. Besides, the “degradation under light with photosensitizer” value in data set [3] (in the presence of riboflavin) was “This was not the case; also recorded: no degradation was observed”. Further, the solubility in data set [4] (1:1 solution of DMSO: PBS pH 7.2) is ~500 µg/mL (≈ 1760 µM). Moreover, the “solubility in aqueous buffers” value in data set [4] (aqueous buffers) was “sparingly soluble”. In data set [4] (organic solvents such as dimethyl sulfoxide (DMSO)), the “solubility in organic solvents” value is on record as “soluble”. Further, the solubility in water result in data set [4] (water) is “very slightly soluble”.
